Measurements as given in patent publication US20120095185A1, “PROCESS FOR CHELATING COPPER IONS USING CB-TE2A BIFUNCTIONAL CHELATE” (NORDION (CANADA) INC., priority 2010, published 2012).

What was measured:
[1] = Conversion of isomer F1 (12b) to F2 (12a) in chloroform, followed by 13C-NMR; assay type: physicochemical; conditions: 14 days at room temperature
Excerpt: FIG. 7A illustrates the aliphatic region of the ^13C-NMR spectrum of the F1 isomer (12b) in CDCl3 (bottom) and the aliphatic region of the ^13C-NMR spectrum of the F2 isomer (12a) in CDCl3 (top). FIG. 7B illustrates the aliphatic region of the ^13C-NMR spectra of the F1 isomer (12b) in CDCl3 at 0 days, 2 days, 6 days, 9 days and 14 days, showing that the F1 isomer (12b) slowly converts to the F2 isomer (12a).
After 14 days at room temperature, the conversion 12b (F1) to 12a (F2) was approximately 50% complete.

[2] = Optimisation of Cu-64 radiolabeling of 13a and 13b to >95% radiochemical yield; conditions: depends on CB-TE2A BFC concentration
Excerpt: As used herein, the terms “degree of complexation” and “percent complexation” are used interchangeably and are defined to mean the percentage of the ion that is successfully complexed with the bifunctional chelate. Here percent complexation is expressed as radiochemical yield, which is the yield of radiolabeled complex expressed as a fraction of the radioactivity originally present. The value of radiochemical yield obtained when making the ion complexes of the present reaction can be greater than 90% or greater than 95%, as measured by reverse phase chromatography (HPLC).
The conditions required to radiolabel 13a and 13b with Cu-64 in >95% radiochemical yield were optimized for pH, temperature and reaction time (Table 1). The exact same radioisotope lot, buffer solutions, and conditions were used for the reaction and the analysis of both 13a and 13b.
Cu-64 radiolabeled 13a and 13b are distinct species with different retention times by HPLC. The analysis was conducted with a Phenomenex hydrosynergy RPC18 column (4.6×150 mm) using a gradient of 98% trifluoracetic acid in water (0.01% v/v) 2% acetonitrile to 50% trifluoracetic acid in water (0.01% v/v) 50% acetonitrile over 30 min at 1 mL/min.

SMILES	Conversion 12b (F1) to 12a (F2) [1]	Reaction time [2]
CCOC(=O)CN1CCCN2CCN(CCCN(C(CCc3ccc([N+](=O)[O-])cc3)C(=O)OC)CC2)CC1 (stereo not drawn) [12b, methyl 2-(11-(2-ethoxy-2-oxoethyl)-1,4,8,11-tetraazabicyclo[6.6.2]hexadecan-4-yl)-4-(4-nitrophenyl)butanoate]	approximately 50%	–
O=C(O)CN1CCCN2CCN(CCCN(C(CCc3ccc([N+](=O)[O-])cc3)C(=O)O)CC2)CC1 (stereo not drawn) [13a]	–	10-30 minutes depending on
O=C(O)CN1CCCN2CCN(CCCN(C(CCc3ccc([N+](=O)[O-])cc3)C(=O)O)CC2)CC1 (stereo not drawn) [13b]	–	60 min
